Assay results as given in patent US8163909B2, “Substituted hydroxyethyl amine compounds as beta-secretase modulators and methods of use” (Amgen Inc., priority 2007, dated 2012).
Read-outs that look alike come from different tables or passages of the source.

Tests used:
[1] = biological target: Beta Secretase enzyme (BACE) (Homo sapiens, UniProt P56817); experiment: In vitro enzymatic BACE FRET (fluorescence resonance energy transfer) assay; assay type: biochemical;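 note: fluorescence read after 1 h with 50 nM quenched peptide substrate spanning the BACE cleavage site, in pH 4.2 acetate buffer containing 10% DMSO and nonionic detergent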
Beta Secretase enzyme (BACE), sequence (P56817 46-501): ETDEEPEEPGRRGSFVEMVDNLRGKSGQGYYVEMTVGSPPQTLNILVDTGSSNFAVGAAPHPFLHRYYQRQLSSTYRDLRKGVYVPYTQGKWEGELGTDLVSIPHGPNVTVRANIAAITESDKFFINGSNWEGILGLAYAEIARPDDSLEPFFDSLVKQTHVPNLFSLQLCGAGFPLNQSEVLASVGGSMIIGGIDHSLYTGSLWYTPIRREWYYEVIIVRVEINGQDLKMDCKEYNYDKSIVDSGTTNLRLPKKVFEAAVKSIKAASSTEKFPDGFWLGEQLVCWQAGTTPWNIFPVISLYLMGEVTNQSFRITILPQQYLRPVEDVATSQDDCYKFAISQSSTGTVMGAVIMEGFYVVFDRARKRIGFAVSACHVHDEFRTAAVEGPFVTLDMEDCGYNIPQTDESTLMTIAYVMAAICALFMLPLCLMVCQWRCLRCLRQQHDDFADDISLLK

[2] = test system: Aβ40 in conditioned medium of cells stably expressing Amyloid Precursor Protein (APP); experiment: In vitro BACE cell-based assay (Aβ40 in conditioned medium, sandwich ELISA);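 note: compounds added as a dilution series, secreted peptide quantified by europium time-resolved fluorescence readout, potency fitted from percent of control versus compound concentration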
[3] = BACE enzyme FRET assay, read-out: BACE1 FRET assay (IC50)
[4] = HEK cells, cell-based assay, read-out: HEK cell assay (IC50)
[5] = Table 1, read-out: BACE1 FRET assay
[6] = Homo sapiens, HEK293, Table 1, HEK cells, read-out: HEK cell assay
[7] = BACE enzyme assay, read-out: BACE1 FRET assay (IC50)
[8] = Homo sapiens, HEK293, HEK cells, cell-based assay, read-out: HEK cell assay (IC50)

Row | Structure (SMILES) | IC50 [1, 3] [nM] | IC50 [2, 8] [nM] | other results
1 | COCC(=O)NC(Cc1cccc(F)c1)C(O)CNC1CC2(CC(O)C2)Oc2cnccc21 [compound 236, N-((1S,2R)-1-((3-fluorophenyl)methyl)-2-hydroxy-3-(((1r,3R,4′S)-3-hydroxy-3′,4′-dihydrospiro[cyclobutane-1,2′-pyrano[2,3-c]pyridin]-4′-yl)amino)propyl)-2-(methyloxy)acetamide] | 5180 | – | IC50 [2, 4]: 270 nM
2 | CC(=O)N[C@@H](Cc1ccc(F)c(Br)c1)[C@H](O)CN[C@H]1CC2(CCC2)Oc2ncc(OC(C)(C)C)cc21 [compound 353, N-((1S,2R)-1-((3-bromo-4-fluorophenyl)methyl)-3-(((4′S)-6′-((1,1-dimethylethyl)oxy)-3′,4′-dihydrospiro[cyclobutane-1,2′-pyrano[2,3-b]pyridin]-4′-yl)amino)-2-hydroxypropyl)acetamide] | – | – | IC50 [1, 5]: 120 nM; IC50 [2, 6]: 424 nM
3 | COCC(=O)N[C@@H](Cc1cccc(F)c1)[C@H](O)CN[C@H]1CC2(CCC2)Oc2cnc(CC(C)(C)C)cc21 [compound 122] | – | 23.1 | IC50 [1, 7]: 7.54 nM
4 | CC(=O)N[C@@H](Cc1ccc(F)cc1)[C@H](O)CN[C@H]1C[C@@]2(CC[C@@H]2O)Oc2ncc(CC(C)(C)C)cc21 [compound 114] | – | 909 | IC50 [1, 7]: 1580 nM
5 | COCC(=O)N[C@@H](Cc1ccc(F)cc1)[C@H](O)CN[C@H]1CC2(CCC2)Oc2cnc(CC(C)(C)F)cc21 [compound 255] | 190 | 216 | –
6 | CC(=O)N[C@@H](Cc1cc(F)cc(F)c1)[C@H](O)CN[C@H]1CC2(CCC2)Oc2ncc(CC(C)(C)C(F)F)cc21 [compound 226] | 4.15 | 5.27 | –
7 | CC(=O)N[C@@H](Cc1ccc2c(c1)OCO2)[C@H](O)CN[C@H]1CC2(CCC2)Oc2ncc(CC(C)(F)F)cc21 [compound 275] | 82 | 63.8 | –
8 | CC(=O)N[C@@H](Cc1ccc2c(c1)OCO2)[C@H](O)CN[C@H]1CC2(CCC2)Oc2ncc(C[C@@H](C)C(F)(F)F)cc21 [compound 321] | – | – | IC50 [1, 5]: 134 nM; IC50 [2, 6]: 64.6 nM
9 | COC(=O)C1CC2(C1)CC(NCC(O)C(Cc1ccc(F)cc1)NC(C)=O)c1cc(CC(C)(C)C)cnc1O2 [compound 257, methyl (1s,3R,4′S)-4′-(((2R,3S)-3-(acetylamino)-4-(4-fluorophenyl)-2-hydroxybutyl)amino)-6′-(2,2-dimethylpropyl)-3′,4′-dihydrospiro[cyclobutane-1,2′-pyrano[2,3-b]pyridine]-3-carboxylate] | 271 | – | IC50 [2, 4]: 372 nM
10 | COCC(=O)N[C@@H](Cc1ccc(F)cc1)[C@H](O)CN[C@H]1CC2(CCC2)Oc2c(F)cc(CC(C)(C)C)cc21 [compound 229] | 8.19 | 85.5 | –
11 | CC(=O)NC(Cc1ccc(F)cc1)C(O)CNC1CC2(CC(C(=O)O)C2)Oc2ncc(CC(C)(C)C)cc21 [compound 263, (1s,3R,4′S)-4′-(((2R,3S)-3-(acetylamino)-4-(4-fluorophenyl)-2-hydroxybutyl)amino)-6′-(2,2-dimethylpropyl)-3′,4′-dihydrospiro[cyclobutane-1,2′-pyrano[2,3-b]pyridine]-3-carboxylic acid] | 10.7 | 976 | –
12 | C[C@H](F)C(=O)N[C@@H](Cc1ccc2c(c1)OCO2)[C@H](O)CN[C@H]1CC2(CCC2)Oc2ncc(CC(C)(C)C)cc21 [Example 483] | – | – | IC50 ([1]; Table 2, read-out: BACE1 FRET assay): 18 nM; IC50 ([2]; Homo sapiens, HEK293, Table 2, HEK cells, read-out: HEK cell assay): 49 nM
13 | CO[C@H](C)C(=O)N[C@@H](Cc1ccc(F)cc1)[C@H](O)CN[C@H]1CC2(CCC2)Oc2cnc(CC(C)(C)F)cc21 [compound 256] | 226 | 274 | –
14 | CC(=O)N[C@@H](Cc1ccc2c(c1)OCO2)[C@H](O)CN[C@H]1CC2(CCC2)Oc2ccc(CC(C)(C)C)cc21 [compound 281] | 11.2 | 59.7 | –
15 | CC(=O)N[C@@H](Cc1ccc2c(c1)OCO2)[C@H](O)CN[C@H]1CC2(CCC2)Oc2nc(F)c(CC(C)C)cc21 [compound 338] | – | – | IC50 [1, 5]: 109 nM; IC50 [2, 6]: 252 nM
16 | COCC(=O)N[C@@H](Cc1ccc(F)c(OC)c1)[C@H](O)CN[C@H]1CC2(CCC2)Oc2ncc(CC(C)(C)C)cc21 [compound 79] | – | 14.8 | IC50 [1, 7]: 6.37 nM
17 | COCC(=O)N[C@@H](Cc1cc(Br)c2c(c1)OCO2)[C@H](O)CN[C@H]1CC2(CCC2)Oc2ncc(CC(C)(C)F)cc21 [compound 211] | 423 | 312 | –
18 | CC(F)(F)Oc1cnc2c(c1)[C@@H](NC[C@@H](O)[C@H](Cc1cccc(F)c1)NC(=O)[C@@H]1CCC(=O)O1)CC1(CCC1)O2 [compound 152] | – | 33.6 | IC50 [1, 7]: 10.6 nM
19 | CO[C@H](C)C(=O)N[C@@H](Cc1cccc(C#N)c1)[C@H](O)CN[C@H]1CC2(CCC2)Oc2ncc(CC(C)(C)F)cc21 [compound 58] | – | 6.78 | IC50 [1, 7]: 5.75 nM

Row | Structure (SMILES) | IC50 [1, 3] [nM] | IC50 [2, 8] [nM] | other results
20 | CC(C)Cc1cnc2c(c1)[C@@H](NC[C@@H](O)[C@H](Cc1ccc3c(c1)OCO3)NC(=O)[C@H](C)F)CC1(CCC1)O2 [compound 601] | – | – | IC50 ([1]; read-out: BACE1 FRET assay (IC50)): 44 nM; IC50 ([2]; Homo sapiens, HEK293, HEK cells, read-out: HEK cell assay (IC50)): 62 nM
21 | CC(=O)N[C@@H](Cc1ccc(F)cc1)[C@H](O)CN[C@H]1CC2(CCC2)Oc2cnc(CC(C)(C)F)cc21 [compound 254] | 178 | 152 | –
22 | COCC(=O)N[C@@H](Cc1ccccc1)[C@H](O)CN[C@H]1CC2(CCC2)Oc2cnc(CC(C)(C)C)cc21 [compound 121] | – | 102 | IC50 [1, 7]: 22.1 nM
23 | CC(=O)N[C@@H](Cc1cccc(F)c1)[C@H](O)CN[C@H]1CC2(CCC2)Oc2ncc(C[C@H](C)C(F)(F)F)cc21 [compound 314] | 4.19 | 11.3 | –
24 | COCC(=O)N[C@@H](Cc1cccc(C#N)c1)[C@H](O)CN[C@H]1CC2(CCC2)Oc2ncc(CC(F)(F)F)cc21 [compound 347] | – | – | IC50 [1, 5]: 10.4 nM; IC50 [2, 6]: 19.2 nM
25 | CC(=O)N[C@@H](Cc1cc(F)c2c(c1)OCO2)[C@H](O)CN[C@H]1CC2(CCC2)Oc2ncc(CC(C)(C)C)cc21 [compound 306] | 4.28 | 7.47 | –
26 | COCC(=O)N[C@@H](Cc1ccccc1)[C@H](O)CN[C@H]1CC2(CCC2)Oc2ncc(CC(C)C)cc21 [compound 328] | – | – | IC50 [1, 5]: 9.19 nM; IC50 [2, 6]: 23 nM
27 | CNc1nc(CC(C)(C)C)cc2c1OC1(CCC1)C[C@@H]2NC[C@@H](O)[C@H](Cc1ccc(F)cc1)NC(=O)COC [compound 147] | – | 23.2 | IC50 [1, 7]: 49.5 nM
28 | COCC(=O)N[C@@H](Cc1cc(F)c2c(c1)OCO2)[C@H](O)CN[C@H]1CC2(CCC2)Oc2ncc(CC(C)(C)C)cc21 [compound 302] | 5.73 | 11.5 | –
29 | CC(=O)N[C@@H](Cc1ccccc1)[C@H](O)CN[C@H]1CC2(CCC2)Oc2ncc(C[C@H](C)C(F)(F)F)cc21 [compound 316] | – | – | IC50 [1, 5]: 13.6 nM; IC50 [2, 6]: 49.7 nM
30 | COCC(=O)NC(Cc1ccc(Cl)cc1)C(O)CNC1CC2(CC(O)C2)Oc2ncc(CC(C)(C)C)cc21 [compound 234, N-((1S,2R)-1-((4-chlorophenyl)methyl)-3-(((1s,3S,4′S)-6′-(2,2-dimethylpropyl)-3-hydroxy-3′,4′-dihydrospiro[cyclobutane-1,2′-pyrano[2,3-b]pyridin]-4′-yl)amino)-2-hydroxypropyl)-2-(methyloxy)acetamide] | 4.04 | 13.5 | –
31 | COCC(=O)N[C@@H](CC1CC1)[C@H](O)CN[C@H]1CC2(CCC2)Oc2ncc(CC(C)(C)C)cc21 [compound 213] | 57 | 78.7 | –
32 | CO[C@H](C)C(=O)N[C@@H](Cc1cccc(F)c1)[C@H](O)CN[C@H]1CC2(CCC2)Oc2ncc(CC(C)(C)C(F)F)cc21 [compound 219] | 5.08 | 5.99 | –
33 | COCC(=O)NC(Cc1ccc2c(c1)OCO2)C(O)CNC1CC2(CC(O)C2)Oc2ncc(CC(C)C)cc21 [compound 246, N-((1S,2R)-1-(1,3-benzodioxol-5-ylmethyl)-2-hydroxy-3-(((1s,3S,4′S)-3-hydroxy-6′-(2-methylpropyl)-3′,4′-dihydrospiro[cyclobutane-1,2′-pyrano[2,3-b]pyridin]-4′-yl)amino)propyl)-2-(methyloxy)acetamide] | 13.5 | 16.4 | –
34 | CC(=O)N[C@@H](Cc1cc(Br)c2c(c1)OCO2)[C@H](O)CN[C@H]1CC2(CCC2)Oc2ncc(CC(C)(C)C)cc21 [compound 203] | 2.84 | 21.1 | –
35 | CC(C)(C)Cc1cnc2c(c1)[C@@H](NC[C@@H](O)[C@H](Cc1cc(F)cc(F)c1)NC(=O)COCc1cncs1)CC1(CCC1)O2 [compound 94] | – | 17.1 | IC50 [1, 7]: 3 nM
36 | COCCNc1nc(CC(C)(C)C)cc2c1OC1(CCC1)C[C@@H]2NC[C@@H](O)[C@H](Cc1ccc(F)cc1)NC(C)=O [compound 149, N-((1S,2R)-3-(((4′S)-6′-(2,2-dimethylpropyl)-8′-((2-(methyloxy)ethyl)amino)-3′,4-dihydrospiro[cyclobutane-1,2′-pyrano[2,3-c]pyridin]-4′-yl)amino)-1-((4-fluorophenyl)methyl)-2-hydroxypropyl)acetamide] | – | 27.2 | IC50 [1, 7]: 47.9 nM
37 | CC(C)(C)Cc1cnc2c(c1)[C@@H](NC[C@@H](O)[C@H](Cc1ccc3c(c1)OCO3)NC(=O)C(Cl)Cl)CC1(CCC1)O2 [compound 100] | – | – | IC50 [1, 7]: 12.7 nM; IC50 [2, 4]: 71.4 nM
38 | CC(=O)NC(Cc1cccc(F)c1)C(O)CNC1CC2(CC(O)C2)Oc2ncc(CC(C)(C)C)cc21 [compound 231, N-((1S,2R)-3-(((1s,3S,4′S)-6′-(2,2-dimethylpropyl)-3-hydroxy-3′,4′-dihydrospiro[cyclobutane-1,2′-pyrano[2,3-b]pyridin]-4′-yl)amino)-1-((3-fluorophenyl)methyl)-2-hydroxypropyl)acetamide] | 4.04 | 3.04 | –
